Laboratory results reported in patent publication US20250304620A1, “ANTIMICROBIAL PEPTIDE AND APPLICATION THEREOF” (priority 2023, published 2025).
Where two headings read alike, the source gives them in different places. Marks after values point to notes of the source that are not given here. Non-standard residues stand in square brackets, D forms with d. PEG2000 = polyethylene glycol 2000, conjugated to the N-terminus; PEG4000 = polyethylene glycol 4000, conjugated to the C-terminus; 2Nal = N[C@@H](Cc1ccc2ccccc2c1)C(=O)O

Assays:
[1] = system: Staphylococcus aureus (NRS 384); conditions: MIC vs Staphylococcus aureus (NRS 384) after trypsin treatment 1:10 (w/w), 37° C., 3 h
Protocol: Trypsin (250 U/mg, pH=8.0) and AMPs (LV-1 to LV-30) were mixed in a ratio of 1:10 (w/w) and added to a reaction buffer (0.2 M sodium phosphate, 1 mM CaCl2), pH 7.5), and then incubated at 37° C. for 3 h.

[2] = system: Methicillin-sensitive Staphylococcus aureus (NRS 384); format: in vivo, ICR mice; conditions: 0.1 mL twice a day for 4 days, mouse back skin infection
Protocol: (§1) Both female and male ICR mice were used in the test, half of the female and male mice were taken and randomly assigned into groups, with 10 mice in each group, and kept in separate cages. The mice were divided into a blank group, a model group, a positive control Methicillin group, and topical formulation groups of AMPs LV-1 to LV-30. Suspensions of Methicillin-sensitive Staphylococcus aureus (NRS 384) and Methicillin-resistant Staphylococcus aureus (MRSA) were prepared, and their concentrations were adjusted to a concentration of 5×10^6 CFU/mL for subsequent use. Hair on backs of the mice was shaved with a shaver, wound was created on back skin of each mouse using a biopsy punch, and the wound was then infected with Methicillin-sensitive Staphylococcus aureus and Methicillin-resistant Staphylococcus aureus (0.1 mL, 5×10^6 CFU/mL) to establish infection models. Except for the blank group and the model group, all other groups received corresponding topical formulations applied directly to the infected areas, with a dose of 0.1 mL, twice a day for 4 consecutive days. On the day following the final administration, skin from the infected sites of each group was aseptically collected, and an antibacterial rate was calculated.

[3] = system: Methicillin-resistant Staphylococcus aureus (MRSA); format: in vivo, ICR mice; conditions: 0.1 mL twice a day for 4 days, mouse back skin infection
Protocol: as §1

Enterococcus ATCC 29212 = format: cell-based
Summary of the method: (§2)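 Serial twofold peptide dilutions were set up in microdilution format per CLSI, MICs were read, and the procedure was repeated in 5 parallel runs.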

[4] = system: Trichophyton ATCC MYA-4438; format: cell-based
Summary of the method: as §2

[5] = system: Escherichia coli ATCC 25922; format: cell-based
Summary of the method: as §2

[6] = system: Candida tropicalis ATCC 750; format: cell-based
Summary of the method: as §2

[7] = system: Staphylococcus aureus (NRS 384); assay: microbe, parasite or virus in culture; format: cell-based; conditions: Staphylococcus aureus (NRS 384)
Summary of the method: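 CLSI broth microdilution with serial twofold dilutions gave MICs against S. aureus NRS 384, with 5 parallel replicates. Levofloxacin and the AMP Cbf-K16 served as positive controls.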

[8] = system: Escherichia coli ATCC 25922; assay: Oral formulations on mice with systemic bacterial infection; format: in vivo, ICR mice; conditions: 1 mg/kg gavage, three times a day for 7 days, n = 10; for Average survival times (Days): observed for 14 d
Summary of the method: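 ICR mice of both sexes, 10 per group, infected i.p. with 0.2 mL E. coli ATCC 25922 at 1×10^7 CFU/mL. Compounds gavaged by body weight immediately after infection, three times daily for 7 days; deaths and survival time recorded over 14 d observation.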

With “Ac-RKLLXRLKXRK-PEG4000 [LV-30] (Ac-RKLL[2Nal]RLK[2Nal]RK-PEG4000) [polyethylene glycol 4000 conjugated to C-terminal; X=3-(2-naphthyl)-alanine]” the “Trypsin MIC” value [1] was 1 µg/mL, the “Inhibition rate against Methicillin-sensitive Staphylococcus aureus (%)” value ([2]; topical formulation 0.2 mg/mL) was 96.07% and the “Inhibition rate against Methicillin-sensitive Staphylococcus aureus (%)” value ([2]; topical formulation 1 mg/mL) was 96.91%. For the same substance, the “Inhibition rate against Methicillin-sensitive Staphylococcus aureus (%)” value ([2]; topical formulation 5 mg/mL) was 98.24%, the “Inhibition rate against Methicillin-resistant Staphylococcus aureus (%)” value ([3]; topical formulation 0.2 mg/mL) was 86.10% and the “Inhibition rate against Methicillin-resistant Staphylococcus aureus (%)” value ([3]; topical formulation 1 mg/mL) was 87.85%. The “Inhibition rate against Methicillin-resistant Staphylococcus aureus (%)” value ([3]; topical formulation 5 mg/mL) was 88.93%, the “MIC Enterococcus ATCC 29212” value (Enterococcus ATCC 29212) was 4 µg/mL and the “MIC Trichophyton ATCC MYA-4438” value [4] was 8 µg/mL. For the same substance, the “MIC Escherichia coli ATCC 25922” value [5] was 2 µg/mL, the “MIC Candida tropicalis ATCC 750” value [6] was 8 µg/mL and the “MIC against Staphylococcus aureus (NRS 384)” value [7] was 1 µg/mL. For the same substance, the “Number of mice that died on each day after infection: day 4” value [8] was 1 Mouse, the “Number of mice that died on each day after infection: day 5” value [8] was 1 Mouse and the “Number of mice that died on each day after infection: day 6” value [8] was 3 Mouse. The “Number of mice that died on each day after infection: day 7” value [8] was 0 Mouse, the “Number of mice that died on each day after infection: day 8” value [8] was 1 Mouse and the “Average survival times (Days)” value [8] was 9.1** Days.

“PEG2000-RKLLXRLKXRK-NH2 [LV-29] (PEG2000-RKLL[2Nal]RLK[2Nal]RK-NH2) [polyethylene glycol 2000 conjugated to N-terminal; X=3-(2-naphthyl)-alanine]” was tested, and the “Trypsin MIC” value [1] was 1 µg/mL, the “Inhibition rate against Methicillin-sensitive Staphylococcus aureus (%)” value ([2]; topical formulation 0.2 mg/mL) was 96.49% and the “Inhibition rate against Methicillin-sensitive Staphylococcus aureus (%)” value ([2]; topical formulation 1 mg/mL) was 97.11%. For the same substance, the “Inhibition rate against Methicillin-sensitive Staphylococcus aureus (%)” value ([2]; topical formulation 5 mg/mL) was 98.65%, the “Inhibition rate against Methicillin-resistant Staphylococcus aureus (%)” value ([3]; topical formulation 0.2 mg/mL) was 86.34% and the “Inhibition rate against Methicillin-resistant Staphylococcus aureus (%)” value ([3]; topical formulation 1 mg/mL) was 87.29%. The “Inhibition rate against Methicillin-resistant Staphylococcus aureus (%)” value ([3]; topical formulation 5 mg/mL) was 88.16%, the “MIC Enterococcus ATCC 29212” value (Enterococcus ATCC 29212) was 8 µg/mL and the “MIC Trichophyton ATCC MYA-4438” value [4] was 16 µg/mL. The “MIC Escherichia coli ATCC 25922” value [5] was 1 µg/mL, the “MIC Candida tropicalis ATCC 750” value [6] was 4 µg/mL and the “MIC against Staphylococcus aureus (NRS 384)” value [7] was 1 µg/mL. The “Number of mice that died on each day after infection: day 4” value [8] was 0 Mouse, the “Number of mice that died on each day after infection: day 5” value [8] was 1 Mouse and the “Number of mice that died on each day after infection: day 6” value [8] was 2 Mouse. For the same substance, the “Number of mice that died on each day after infection: day 7” value [8] was 1 Mouse, the “Number of mice that died on each day after infection: day 8” value [8] was 1 Mouse and the “Average survival times (Days)” value [8] was 10.2*** Days.
